Laboratory results as given in patent publication US20110223256A1, “Method For Stabilizing Flavonoid Aqueous Dispersion” (STOKELY-VAN CAMP, INC., priority 2010, published 2011).

assay: Shelf life of aqueous dispersion in 20 oz beverage; format: physicochemical; conditions: aqueous dispersion in 20 oz beverage, 22-25° C.; stable = no settling, phase separation or precipitates
Experimental: As set forth in the examples below, stable aqueous dispersions containing bioactive compounds were prepared by using the solubilization and stabilization process. The resulting dispersions were fine, homogeneous, and stable. There were no settling, phase separation, and precipitates on the side of the bottle (See FIG. 3 and Table 1).

| Structure (SMILES) | Shelf Life (22-25° C.) |
| --- | --- |
| COc1ccc([C@@H]2CC(=O)c3c(O)cc(O[C@@H]4O[C@H](CO[C@@H]5O[C@@H](C)[C@H](O)[C@@H](O)[C@H]5O)[C@@H](O)[C@H](O)[C@H]4O)cc3O2)cc1O [Hesperedin] | Stable after at least 3 months |
| C[C@@H]1CC[C@H]2[C@@H](C)C(=O)O[C@@H]3O[C@@]4(C)CC[C@@H]1[C@]32OO4 [Artemisinin, reference compound] | Stable after at least 3 months |
| O=C1C[C@@H](c2ccc(O)cc2)Oc2cc(O)cc(O)c21 [Naringenin] | Stable after at least 3 months |
| COc1cc(/C=C/C(=O)CC(=O)/C=C/c2ccc(O)c(OC)c2)ccc1O [Curcumin] | Stable after at least 3 months |

Next, values leading:

| Shelf Life (22-25° C.) | Structure (SMILES) |
| --- | --- |
| Stable after at least 6 months | O=c1c(O)c(-c2ccc(O)c(O)c2)oc2cc(O)cc(O)c12 [Quercetin, 2-(3,4-dihydroxyphenyl)-3,5,7-trihydroxy-4H-chromen-4-one] |
| Stable after at least 3 months | COc1ccc2oc(-c3ccc(OC)c(OC)c3)c(OC)c(=O)c2c1 [Tetramethoxyflavone, 3,6,3′,4′-Tetramethoxyflavone] |
| Stable after at least 3 months | Oc1ccc(C=Cc2cc(O)cc(O)c2)cc1 [Resveratrol] |

same assay, conditions: depending on the dispersion stabilizer(s) used

| Structure (SMILES) | Length of time quercetin stays dispersed in a beverage |
| --- | --- |
| O=c1c(O)c(-c2ccc(O)c(O)c2)oc2cc(O)cc(O)c12 [Quercetin, 2-(3,4-dihydroxyphenyl)-3,5,7-trihydroxy-4H-chromen-4-one] | about 12 hours to about six months or longer |
